Results reported in patent US20240384350A1, “METHODS OF TREATING CANCER WITH KINASE INHIBITORS” (BOARD OF REGENTS, THE UNIVERSITY OF TEXAS SYSTEM, priority 2021, published 2024).

Key:
Assay in all cases: Ba/F3 drug screening, Cell Titer Glo, IC50 Mut/WT
Assay type in all cases: cell-based
[1] = molecular target: T1, EGFR G719A/R776C (Homo sapiens, UniProt P00533, G719A/R776C)
T1 construct: expressed in transfected cells; host or cells: Ba/F3
Experimental: (§1) Data represent the ratio of the IC50 value for a given TKI for cells with a PACC EGFR mutation to the IC50 value for cells with wildtype EGFR.
(§2) Ba/F3 cell generation, drug screening, and IC50 approximations. Ba/F3 cells were obtained as a gift from Dr. Gordon Mills (MD Anderson Cancer Center), and maintained in RPMI (Sigma) containing 10% FBS, 1% penicillin/streptomycin, and 10 ng/ml recombinant mIL-3 (R&D Biosystems). To establish stable Ba/F3 cell lines, Ba/F3 cells were transduced with retroviruses containing mutant EGFR plasmids for 12-24 hours.
(§3) After 48-72 hours of transduction, 2 μg/ml puromycin (Invitrogen) was added to Ba/F3 cell lines in complete RPMI. To select for EGFR positive cell lines, cells were stained with PE-EGFR (Biolegend) and sorted by FACS. After sorting, EGFR positive cells were maintained in RPMI containing 10% FBS, 1% penicillin/streptomycin, and 1 ng/ml EGF to support cell viability. Drug screening was performed as previously described^41,42. Shortly, cells were plated in 384-well plates (Greiner Bio-One) at 2000-3000 cells per well in technical triplicate. Seven different concentrations of TKIs or DMSO vehicle were added to reach a final volume of 40 μL per well. After 72 hours, 11 μL of Cell Titer Glo (Promega) was added to each well. Plates were incubated for a minimum of 10 minutes, and bioluminescence was determined using a FLUOstar OPTIMA plate reader (BMG LABTECH). Raw bioluminescence values were normalized to DMSO control treated cells, and values were plotted in GraphPad Prism. […] Drug screens were performed in technical triplicate on each plate and either duplicate or triplicate biological replicates.

[2] = molecular target: T2, EGFR G724S T790M (Homo sapiens, UniProt P00533, G724S/T790M); conditions: T790M-like-3R, 72 hours
T2 construct: expressed in transfected cells; host or cells: Ba/F3

[3] = molecular target: T3, EGFR G724S (Homo sapiens, UniProt P00533, G724S)
T3 construct: expressed in transfected cells; host or cells: Ba/F3

[4] = molecular target: T4, EGFR S720P (Homo sapiens, UniProt P00533, S720P); conditions: Classical-Like, 72 hours
T4 construct: expressed in transfected cells; host or cells: Ba/F3 cells, retroviral pBabe-Puro vector (vector made by GeneScript from EGFR WT)
Experimental: (§4) Data represent the ratio of the IC50 value for a given TKI for cells with a classical-like EGFR mutation to the IC50 value for cells with wildtype EGFR.
as §2
(§5) After 48-72 hours of transduction, 2 μg/ml puromycin (Invitrogen) was added to Ba/F3 cell lines in complete RPMI. To select for EGFR positive cell lines, cells were stained with PE-EGFR (Biolegend) and sorted by FACS. After sorting, EGFR positive cells were maintained in RPMI containing 10% FBS, 1% penicillin/streptomycin, and 1 ng/ml EGF to support cell viability. […] Shortly, cells were plated in 384-well plates (Greiner Bio-One) at 2000-3000 cells per well in technical triplicate. Seven different concentrations of TKIs or DMSO vehicle were added to reach a final volume of 40 μL per well. After 72 hours, 11 μL of Cell Titer Glo (Promega) was added to each well. Plates were incubated for a minimum of 10 minutes, and bioluminescence was determined using a FLUOstar OPTIMA plate reader (BMG LABTECH). Raw bioluminescence values were normalized to DMSO control treated cells, and values were plotted in GraphPad Prism. […] Drug screens were performed in technical triplicate on each plate and either duplicate or triplicate biological replicates.

[5] = molecular target: T5, EGFR D761N (Homo sapiens, UniProt P00533, D761N); conditions: Classical-Like, 72 hours
T5 construct: expressed in transfected cells; host or cells: Ba/F3 cells, retroviral pBabe-Puro vector

[6] = molecular target: T6, EGFR L858R/T790M (Homo sapiens, UniProt P00533, L858R/T790M); conditions: T790M-like-3S, 72 hours
T6 construct: expressed in transfected cells; host or cells: Ba/F3

[7] = molecular target: T7, EGFR D770insNPG (Homo sapiens, UniProt P00533, INS770NPG); conditions: Ex20, 72 hours
T7 construct: expressed in transfected cells; host or cells: Ba/F3 cells, retroviral pBabe-Puro vector
Experimental: (§6) Data represent the ratio of the IC50 value for a given TKI for cells with an ex20ins EGFR mutation to the IC50 value for cells with wildtype EGFR.
as §2
(§7) After 48-72 hours of transduction, 2 μg/ml puromycin (Invitrogen) was added to Ba/F3 cell lines in complete RPMI. To select for EGFR positive cell lines, cells were stained with PE-EGFR (Biolegend) and sorted by FACS. After sorting, EGFR positive cells were maintained in RPMI containing 10% FBS, 1% penicillin/streptomycin, and 1 ng/ml EGF to support cell viability. Drug screening was performed as previously described^41,42. Shortly, cells were plated in 384-well plates (Greiner Bio-One) at 2000-3000 cells per well in technical triplicate. Seven different concentrations of TKIs or DMSO vehicle were added to reach a final volume of 40 μL per well. After 72 hours, 11 μL of Cell Titer Glo (Promega) was added to each well. Plates were incubated for a minimum of 10 minutes, and bioluminescence was determined using a FLUOstar OPTIMA plate reader (BMG LABTECH). Raw bioluminescence values were normalized to DMSO control treated cells, and values were plotted in GraphPad Prism. […] Drug screens were performed in technical triplicate on each plate and either duplicate or triplicate biological replicates. […] Statistical differences between groups were determined by ANOVA as described in the figure legends.

[8] = molecular target: T8, EGFR N771dupN (Homo sapiens, UniProt P00533, DUP771-771); conditions: Ex20, 72 hours
T8 construct: expressed in transfected cells; host or cells: Ba/F3 cells, retroviral pBabe-Puro vector

[9] = molecular target: T9, EGFR Ex19del/L792H (Homo sapiens, UniProt P00533, DEL746-750/L792H)
T9 construct: expressed in transfected cells; host or cells: Ba/F3
Experimental: as §1, §2, §3

[10] = molecular target: T10, EGFR Ex19del T854I (Homo sapiens, UniProt P00533, DEL746-750/T854I)
T10 construct: expressed in transfected cells; host or cells: Ba/F3 (retroviral transduction, pBabe-Puro based vectors)

[11] = tested on: EGFR I740dupIPVAK
Experimental: as §1, §2, §3

[12] = molecular target: T11, EGFR L858R/T790M/L718Q (Homo sapiens, UniProt P00533, L718Q/L858R/T790M); conditions: T790M-like-3R, 72 hours
T11 construct: expressed in transfected cells; host or cells: Ba/F3
Experimental: Data represent the ratio of the IC50 value for a given TKI for cells with a T790M-like-3R EGFR mutation to the IC50 value for cells with wildtype EGFR.
as §2
After 48-72 hours of transduction, 2 μg/ml puromycin (Invitrogen) was added to Ba/F3 cell lines in complete RPMI. To select for EGFR positive cell lines, cells were stained with PE-EGFR (Biolegend) and sorted by FACS. After sorting, EGFR positive cells were maintained in RPMI containing 10% FBS, 1% penicillin/streptomycin, and 1 ng/ml EGF to support cell viability. […] Shortly, cells were plated in 384-well plates (Greiner Bio-One) at 2000-3000 cells per well in technical triplicate. Seven different concentrations of TKIs or DMSO vehicle were added to reach a final volume of 40 μL per well. After 72 hours, 11 μL of Cell Titer Glo (Promega) was added to each well. Plates were incubated for a minimum of 10 minutes, and bioluminescence was determined using a FLUOstar OPTIMA plate reader (BMG LABTECH). Raw bioluminescence values were normalized to DMSO control treated cells, and values were plotted in GraphPad Prism. […] Drug screens were performed in technical triplicate on each plate and either duplicate or triplicate biological replicates. […] Statistical differences between groups were determined by ANOVA as described in the figure legends.

[13] = molecular target: T12, EGFR Ex19del/C797S (Homo sapiens, UniProt P00533, C797S/DEL746-750)
T12 construct: expressed in transfected cells; host or cells: Ba/F3
Experimental: as §1, §2, §3

[14] = molecular target: T13, EGFR N771dupN G724S (Homo sapiens, UniProt P00533, DUP771-771/G724S); conditions: Ex20, 72 hours
T13 construct: expressed in transfected cells; host or cells: Ba/F3 cells, retroviral pBabe-Puro vector (vector made by GeneScript from EGFR G724S, c.2313_2314insAAC)

[15] = molecular target: T14, EGFR E709K L858R (Homo sapiens, UniProt P00533, E709K/L858R); conditions: Classical-Like, 72 hours
T14 construct: expressed in transfected cells; host or cells: Ba/F3 cells, retroviral pBabe-Puro vector

[16] = molecular target: T15, EGFR R776C (Homo sapiens, UniProt P00533, R776C)
T15 construct: host or cells: Ba/F3
Experimental: as §1, §2, §3

[17] = molecular target: T16, EGFR T725M (Homo sapiens, UniProt P00533, T725M); conditions: Classical-Like, 72 hours
T16 construct: expressed in transfected cells; host or cells: Ba/F3 cells, retroviral pBabe-Puro vector (vector made by GeneScript from EGFR WT)
Experimental: as §4, §2, §5

[18] = molecular target: T17, EGFR S768dupSVD V769M (Homo sapiens, UniProt P00533, INS768MDS/V769M); conditions: Ex20, 72 hours
T17 construct: expressed in transfected cells; host or cells: Ba/F3 cells, retroviral pBabe-Puro vector (vector made by GeneScript from EGFR S768dupSVD, c.2305G > A)
Experimental: as §6, §2, §7

[19] = molecular target: T18, EGFR K754E (Homo sapiens, UniProt P00533, K754E); conditions: Classical-Like, 72 hours
T18 construct: expressed in transfected cells; host or cells: Ba/F3 cells, retroviral pBabe-Puro vector

[20] = molecular target: T19, EGFR Ex19del/T790M/G724S (Homo sapiens, UniProt P00533, DEL746-750/G724S/T790M); conditions: T790M-like-3S, 72 hours
T19 construct: expressed in transfected cells; host or cells: Ba/F3
Experimental: Data represent the ratio of the IC50 value for a given TKI for cells with a T790M-like-3S EGFR mutation to the IC50 value for cells with wildtype EGFR.
as §2, §3

[21] = molecular target: T20, EGFR E709K (Homo sapiens, UniProt P00533, E709K)
T20 construct: expressed in transfected cells; host or cells: Ba/F3
Experimental: as §1, §2, §3

[22] = molecular target: T21, EGFR L858R/L718V (Homo sapiens, UniProt P00533, L718V/L858R)
T21 construct: host or cells: Ba/F3
Experimental: as §1, §2, §3

[23] = molecular target: T22, EGFR Ex19del T790M (Homo sapiens, UniProt P00533, DEL746-750/T790M); conditions: T790M-like-3S, 72 hours
T22 construct: expressed in transfected cells; host or cells: Ba/F3

[24] = molecular target: T23, EGFR S768I (Homo sapiens, UniProt P00533, S768I)
T23 construct: expressed in transfected cells; host or cells: Ba/F3

[25] = molecular target: T24, EGFR H773insNPH (Homo sapiens, UniProt P00533, INS773NPH); conditions: Ex20, 72 hours
T24 construct: expressed in transfected cells; host or cells: Ba/F3 cells, retroviral pBabe-Puro vector

[26] = molecular target: T25, EGFR E709A G719S (Homo sapiens, UniProt P00533, E709A/G719S)
T25 construct: expressed in transfected cells; host or cells: Ba/F3
Experimental: as §1, §2, §3

ratio of IC50 for cells with mutant EGFR to IC50 for cells with wildtype EGFR (Mut/WT) [2]	ratio of IC50 for cells with mutant EGFR to IC50 for cells with wildtype EGFR (Mut/WT) [4]	ratio of IC50 for cells with mutant EGFR to IC50 for cells with wildtype EGFR (Mut/WT) [5]	ratio of IC50 for cells with mutant EGFR to IC50 for cells with wildtype EGFR (Mut/WT) [6]	ratio of IC50 for cells with mutant EGFR to IC50 for cells with wildtype EGFR (Mut/WT) [7]	ratio of IC50 for cells with mutant EGFR to IC50 for cells with wildtype EGFR (Mut/WT) [8]	ratio of IC50 for cells with mutant EGFR to IC50 for cells with wildtype EGFR (Mut/WT) [12]	ratio of IC50 for cells with mutant EGFR to IC50 for cells with wildtype EGFR (Mut/WT) [14]	ratio of IC50 for cells with mutant EGFR to IC50 for cells with wildtype EGFR (Mut/WT) [15]	ratio of IC50 for cells with mutant EGFR to IC50 for cells with wildtype EGFR (Mut/WT) [17]	ratio of IC50 for cells with mutant EGFR to IC50 for cells with wildtype EGFR (Mut/WT) [18]	ratio of IC50 for cells with mutant EGFR to IC50 for cells with wildtype EGFR (Mut/WT) [19]	ratio of IC50 for cells with mutant EGFR to IC50 for cells with wildtype EGFR (Mut/WT) [20]	ratio of IC50 for cells with mutant EGFR to IC50 for cells with wildtype EGFR (Mut/WT) [23]	ratio of IC50 for cells with mutant EGFR to IC50 for cells with wildtype EGFR (Mut/WT) [25]	SMILES	also measured
7.7	0.01834	0.6757	6.744	3.835	1.567	4.812	1.258	0.02202	0.1059	1.659	0.04651	4.645	12.68	1.561	COc1cc2ncnc(Nc3cccc(Cl)c3F)c2cc1OC(=O)N1CCN(C)C[C@H]1C [AZD3759]	ratio of IC50 for cells with mutant EGFR to IC50 for cells with wildtype EGFR (Mut/WT) ([1]; PACC, G719A/R776C, Ba/F3, 72 hours): 0.2006; ratio of IC50 for cells with mutant EGFR to IC50 for cells with wildtype EGFR (Mut/WT) ([3]; PACC, G724S, Ba/F3, 72 hours): 0.01105; ratio of IC50 for cells with mutant EGFR to IC50 for cells with wildtype EGFR (Mut/WT) ([9]; PACC, Ex19del/L792H, Ba/F3, 72 hours): 9.625; ratio of IC50 for cells with mutant EGFR to IC50 for cells with wildtype EGFR (Mut/WT) ([10]; PACC, Ex19del T854I, Ba/F3, 72 hours): 1.509; ratio of IC50 for cells with mutant EGFR to IC50 for cells with wildtype EGFR (Mut/WT) ([11]; PACC, I740dupIPVAK, Ba/F3, 72 hours): 0.08984; ratio of IC50 for cells with mutant EGFR to IC50 for cells with wildtype EGFR (Mut/WT) ([13]; PACC, Ex19del/C797S, Ba/F3, 72 hours): 0.0001375; ratio of IC50 for cells with mutant EGFR to IC50 for cells with wildtype EGFR (Mut/WT) ([16]; PACC, R776C, Ba/F3, 72 hours): 0.1522; ratio of IC50 for cells with mutant EGFR to IC50 for cells with wildtype EGFR (Mut/WT) ([21]; PACC, E709K, Ba/F3, 72 hours): 0.3129; ratio of IC50 for cells with mutant EGFR to IC50 for cells with wildtype EGFR (Mut/WT) ([22]; PACC, L858R/L718V, Ba/F3, 72 hours): 0.2408; ratio of IC50 for cells with mutant EGFR to IC50 for cells with wildtype EGFR (Mut/WT) ([24]; PACC, S768I, Ba/F3, 72 hours): 0.145; ratio of IC50 for cells with mutant EGFR to IC50 for cells with wildtype EGFR (Mut/WT) ([26]; PACC, E709A G719S, Ba/F3, 72 hours): 0.2131
0.1867	0.005619	0.0009686	0.01957	0.529	0.371	0.7714	0.3384	0.01992	0.04541	0.3262	0.04749	0.06117	0.01265	0.4242	Cc1cc(C(=O)Nc2nc3cccc(Cl)c3n2[C@@H]2CCCCN(C(=O)/C=C/CN(C)C)C2)ccn1 [Nazartinib]	ratio of the IC50 value for cells with a PACC EGFR mutation to the IC50 value for cells with wildtype EGFR ([1]; Ba/F3 cells, EGFR G719A/R776C (PACC), Mut/WT): 0.05772; ratio of the IC50 value for cells with a PACC EGFR mutation to the IC50 value for cells with wildtype EGFR ([3]; Ba/F3 cells, EGFR G724S (PACC), Mut/WT): 0.869; ratio of the IC50 value for cells with a PACC EGFR mutation to the IC50 value for cells with wildtype EGFR ([9]; Ba/F3 cells, EGFR Ex19del/L792H (PACC), Mut/WT): 0.5146; ratio of the IC50 value for cells with a PACC EGFR mutation to the IC50 value for cells with wildtype EGFR ([10]; Ba/F3 cells, EGFR Ex19del T854I (PACC), Mut/WT): 1.135; ratio of the IC50 value for cells with a PACC EGFR mutation to the IC50 value for cells with wildtype EGFR ([11]; Ba/F3 cells, EGFR I740dupIPVAK (PACC), Mut/WT): 0.1352; ratio of the IC50 value for cells with a PACC EGFR mutation to the IC50 value for cells with wildtype EGFR ([13]; Ba/F3 cells, EGFR Ex19del/C797S (PACC), Mut/WT): 3.067; ratio of the IC50 value for cells with a PACC EGFR mutation to the IC50 value for cells with wildtype EGFR ([16]; Ba/F3 cells, EGFR R776C (PACC), Mut/WT): 0.2846; ratio of the IC50 value for cells with a PACC EGFR mutation to the IC50 value for cells with wildtype EGFR ([21]; Ba/F3 cells, EGFR E709K (PACC), Mut/WT): 0.0309; ratio of the IC50 value for cells with a PACC EGFR mutation to the IC50 value for cells with wildtype EGFR ([22]; Ba/F3 cells, EGFR L858R/L718V (PACC), Mut/WT): 1.03; ratio of the IC50 value for cells with a PACC EGFR mutation to the IC50 value for cells with wildtype EGFR ([24]; Ba/F3 cells, EGFR S768I (PACC), Mut/WT): 0.5273; ratio of the IC50 value for cells with a PACC EGFR mutation to the IC50 value for cells with wildtype EGFR ([26]; Ba/F3 cells, EGFR E709A G719S (PACC), Mut/WT): 0.09237
